# According to US7138433B2, “Quinone-based therapeutic agent for hepatopathy” (Eisai Co., Ltd., priority 2002, dated 2006):
# How the values were obtained:
# [1] = system: DCP-producing HCC cell line; conditions: in vitro; Hepatology 1995, 22:876-82; cited from earlier work
# [2] = system: hepatocellular carcinoma patients after treatment; assay: Trial Example 2: trial of VK-II in inhibiting recurrence of hepatocellular carcinoma after treatment; type: in vivo, human; conditions: for risk ratio for recurrence of hepatic cancer: Cox proportional hazard model, control group = 1; for time period until 50% recurrence: control group 10 months
# Experimental: A trial was carried out as follows with an objective of investigating the effect and safety of VK-II in inhibiting recurrence of hepatocellular carcinoma after treatment. 61 cases in which hepatocellular carcinoma was diagnosed and then after treatment therefor necrosis (or curative excision) was judged by contrast CT to have completely occurred were entered from March 1999 to March 2001, the entered cases were divided into two groups, namely a VK-II-administered group for which the end of the patient ID number was an odd number and a non-administered group (control group) for which the end of the patient ID number was an even number, and a VK-II preparation (proprietary name […], made by Eisai Co., Ltd.) was orally administered at a dose of 45 mg/day to the administered group. Contrast CT or MRI was carried out every 3 months, and a statistical analysis of the time period until recurrence was carried out. Specifically, comparison was carried out using the Kaplan-Meier method (log-rank test), and the risk ratio for recurrence was analyzed using the Cox proportional hazard model.
# [3] = system: MMP-1; assay: MMP protein expression in hepatic cancer cells, Western blot; type: cell-based; conditions: VK-II added to hepatic cancer cells
# Source text: (§1) The action of VK-II according to the present application with regard to invasion/metastasis of hepatic cancer cells was studied in vitro. The action on invasion ability was investigated through an invasion assay using HepG2 cells and a Matrigel chamber. […] Regarding the action on the metastasis ability, the action of VK-II on the expression of extracellular matrix metalloproteinases (MMPs) was investigated using the Western blot method. […] From the above, although the data is in vitro, it can be presumed that VK-II inhibits invasion/metastasis of hepatic cancer cells.
# [4] = system: MMP-3; assay: as above; type: cell-based; conditions: VK-II added to hepatic cancer cells
# Source text: as §1
# [5] = system: DCP positive hepatic cancer patients; assay: Trial Example 1: randomized prospective controlled clinical trial of oral VK-II after hepatic cancer treatment; type: in vivo, human; conditions: treated group
# Experimental: A clinical trial (randomized prospective controlled study) was carried out as follows.
# Out of patients with hepatocellular carcinoma, ones having a serum DCP level above 60 IU/L (DCP positive hepatic cancer) were included in the trial. On the other hand, patients having portal venous invasion, and patients in which there was already VK metabolism through administration of VK or an anti-VK agent, were excluded from the trial.
# 126 hepatic cancer patients were given treatment from February 1999 to November 2001. As the hepatic cancer treatment, percutaneous cauterization therapy (RFA and/or PEIT) for HCC, treatment via the blood vessels (TAE or TAI), or surgical excision was carried out. Of the patients, 5 were excluded from the present trial.
# Next, the remaining 121 patients were randomly divided into a treated group (n=60) and an untreated group (n=61). The treated group were orally administered 45 mg/day of VK-II (proprietary name Glakay, made by Eisai Co., Ltd.) after the hepatic cancer treatment, while the untreated group were not administered VK-II.
# Follow-up tests were carried out after the hepatic cancer treatment. As the follow-up tests, ultrasonography (abdominal echography) was carried out every 3 months, a CT scan was carried out every 6 months, and the levels of the tumor markers alpha-fetoprotein and DCP were measured every one month.
# Statistical analysis was carried out on the PVI incidence rate and the survival rate for the two groups. That is, calculations were carried out using the Cox proportional hazard model, and a test was carried out using the log-rank method. The average observation period was 12±8 months.
# [6] = cited from earlier work
# [7] = system: HepG2 cells; assay: Invasion assay using HepG2 cells and a Matrigel chamber; type: cell-based; conditions: upon adding VK-II; depending on the concentration
# Source text: as §1
smiles,measurement,setting,value
"CC(C)=CCC/C(C)=C/CC/C(C)=C/CC/C(C)=C/CC1=C(C)C(=O)c2ccccc2C1=O [VK-II, 2-methyl-3-tetraprenyl-1,4-naphthoquinone]",cell proliferation,[1],inhibited
same,side effects,[2]; 45 mg/day oral,no side effects
same,risk ratio for recurrence of hepatic cancer,[2]; HCV cases only,0.210
same,risk ratio for recurrence of hepatic cancer,[2]; all cases,0.329
same,time period until 50% recurrence,[2]; HCV cases only,26 months
same,1-year cumulative recurrence rate,"[2]; HCV cases only, control group 61.5%",7.1%
same,2-year cumulative recurrence rate,"[2]; HCV cases only, control group 87.2%",37.8%
same,DCP upon recurrence,[2]; all cases of recurrence in the VK-II-administered group,negative
same,1-year cumulative recurrence rate,"[2]; all cases, 45 mg/day oral, control group 55.2%",12.5%
same,2-year cumulative recurrence rate,"[2]; all cases, 45 mg/day oral, control group 85.5%",39.6%
same,time period until 50% recurrence,[2]; all cases,26 months
same,hepatic cancer cumulative recurrence rate compared with the control group,[2]; excluding cases of local recurrence (29 vs 22 cases),statistically significantly suppressed
same,hepatic cancer cumulative recurrence rate compared with the control group,[2]; excluding cases of recurrence within 6 months (31 vs 22 cases),statistically significantly suppressed
same,MMP-1 protein expression,[3],inhibited
same,MMP-3 protein expression,[4],inhibited
same,PVI incidence rate,"[5]; after 1 year, 45 mg/day oral, untreated group 23%",2%
same,survival rate,"[5]; after 2 years, 45 mg/day oral, untreated group 28% (P=0.044)",66%
same,PVI incidence rate,"[5]; after 2 years, 45 mg/day oral, untreated group 47% (P=0.018)",23%
same,DCP level in the serum after hepatic cancer treatment,"[5]; 45 mg/day oral VK-II (Glakay), for 12 months, untreated group gradually increased",remained approximately constant
same,solubility in water,[6],hardly dissolves in water
same,number of cells passing through the Matrigel,[7],dropped
